Assay [1] concerns the target Ba/F3-FL-EGFR (L858R/T790M/C797S) (Homo sapiens, UniProt P00533, T790M/C797S/L858R, cells depend on it). Description: Cell proliferation inhibition, CellTiter-Glo. The assay is classed as cell-based. The conditions noted are these: 72 hours, read-out: Cell half-maximal inhibition concentration IC50 Ba/F3-FL-EGFR (L858R/T790M/C797S). Here is the method:
(§1) AdenosineTri-Phosphate (ATP) is an energy carrier shared by various life activities in nature, and is the smallest unit of energy storage and transfer. The CellTiter-Glo™ living cell assay kit uses luciferase as a detector, and luciferase requires the participation of ATP in the process of luminescence. CellTiter-Glo™ reagent is added to a cell culture medium, and the luminescence value is measured. The light signal is directly proportional to the amount of ATP in the system, and ATP is positively correlated with the number of living cells. Therefore, cell proliferation can be detected by detecting ATP content with the CellTiter-Glo kit. In this assay, the cell lines were Ba/F3-FL-EGFR (L858R/T790M/C797S), Ba/F3-FL-EGFR (WT), Ba/F3-FL-EGFR (L858R), Ba/F3-FL-EGFR (del19-S752-I759), Ba/F3-FL-EGFR (del19-E746-A750/T790M/C797S), Ba/F3-FL-EGFR (L858R/T790M), Ba/F3-FL-EGFR (del19-E746-A750/T790M), Ba/F3-TEL-EGFR (L858R/C797S), Ba/F3-FL-EGFR (del19-E746-A750/C797S) stably transfected cell lines.
(§2) The cell lines were cultured in an incubator at 37° C. and 5% CO2. The cells were periodically passaged, and cells in logarithmic growth phase were taken for plating.
(§3) a) DMSO was used to prepare a 10 mM solution of the compound to be tested, and then the compound to be tested was diluted to 0.3 or 1 mM with DMSO.
(§4) b) Preparation of 1000× compound storage plate (tube): DMSO was used to dilute by 3-fold gradient from the highest concentration to the lowest concentration, with a total of 9 concentrations.
(§5) c) Preparation of 20× compound working solution: 49 μL of cell culture medium was added to a flat-bottomed 96-well transparent drug plate, and 1 μL of compound was pipetted from the 1000× compound storage plate to the cell culture medium of the 96-well transparent drug plate. 1 μL of DMSO was added to the vehicle control. After adding compound or DMSO, the well content was mixed to uniform by aspiration and expelling with pipette.
(§6) a) Cells were stained with trypan blue and viable cells were counted. The cell viability rate was required to be above 90%.
(§7) b) 95 μL of cell suspension (2000 cells/well) was added to each well of the compound detection cell plate, and culture medium without cells (containing 0.1% DMSO) was added to the Min control well.
(§8) c) Dosing in the compound detection cell plate: 5 μL of 20× compound working solution was added to the cell culture plate. 5 μL of DMSO-cell culture mixture was added to the Max control. The final concentration of DMSO was 0.1%.
(§9) d) The culture plate was incubated in an incubator at 37° C., 5% CO2 for 72 hours.
(§10) Cell proliferation inhibition rate (Inhibition Rate) data were processed using the following formula:
Inhibition Rate (Inh %)=100−(RLUDrug−RLUMin)/(RLUMax−RLUMin)*100%.
The inhibition rates corresponding to different concentrations of compounds were calculated, and then GraphPad Prism software was used to draw the inhibition rate curve and the IC50 value was calculated.
(In ATP-based viability assays light output follows the ATP content of the culture.)

The target of a further assay is T1, EGFR (L858R/T790M/C797S) (Homo sapiens, UniProt P00533, C797S/L858R/T790M).
T1 construct: Reaction Biology Corp. (assay performed there)
Description: Kinase inhibitory activity, 33P-ATP filtration-binding (Reaction Biology Corp.). The assay is classed as biochemical. Conditions: read-out: Kinase half-maximal inhibition concentration IC50 EGFR(L858R/T790M/C797S). The method, then:
Compound assay for kinase inhibitory activity against EGFR (L858R/T790M/C797S), EGFR (del19-E746-A750/T790M/C797S), and EGFR (WT) was done at Reaction Biology Corp. In reaction buffer (20 mM Hepes (pH 7.5), 10 mM magnesium chloride (MgCl2), 1 mM ethylenebis(oxyethylenenitrilo)tetraacetic acid (EGTA), 0.02% polyethylene glycol monododecyl ether (Brij35), 0.02 mg/ml BSA, 0.1 mM sodium vanadate (Na3VO4), 2 mM dithiothreitol (DTT), 1% DMSO), a certain concentration of substances, coenzyme factors, kinases and test compounds (10 doses, 3-fold serial dilutions, 2% DMSO final concentration) were added in sequence, and mixed well. The mixture was incubated at room temperature for 20 minutes. A certain concentration of ^33P-ATP was added to the reaction mixture to initiate reaction, followed by incubation at room temperature for 120 minutes. Finally, the radioactivity of the reactants was detected by filtration-binding method. The final kinase activity was expressed as the ratio of the remaining kinase activity of the test sample to the kinase activity of the DMSO control group. The dose-response relationship curve was fitted and IC50 was calculated using GraphPad software.

A further assay addresses Ba/F3-FL-EGFR (L858R) (Homo sapiens, UniProt P00533, L858R, cells depend on it). Description: Cell proliferation inhibition, CellTiter-Glo. In kind it is cell-based. Conditions: 72 hours, read-out: Cell half-maximal inhibition concentration IC50 Ba/F3-FL-EGFR (L858R). Here is the method: as §1, §2, §3, §4, §5, §6, §7, §8, §9
(§11) The following steps were performed according to the instruction of Promega CellTiter-Glo luminescence cell viability detection kit (Promega-G7573). • a) The CellTiter-Glo buffer was thawed and allowed to stand to reach room temperature; • b) CellTiter-Glo substrate was allowed to stand to reach room temperature; • c) CellTiter-Glo buffer was added to CellTiter-Glo substrate in a bottle to dissolve the substrate to formulate CellTiter-Glo working solution; • d) The working solution was vortexed slowly for fully dissolution; • e) The cell culture plates were taken out and allowed to stand for 10 minutes to equilibrate to room temperature; • f) 50 μL (equal to half the volume of cell culture solution in each well) of Cell Titer-Glo working solution was added into each well. • g) The culture plates were shaken on an orbital shaker for 2 minutes to induce cell lysis; • h) The culture plates were left at room temperature for 10 minutes to stabilize the luminescence signal; • i) The luminous signal was detected on the PerkinElmer EnVision®2105 plate reader.
(§12) By PerkinElmer EnVision®2105 reading, the corresponding […] value RLU for each well was yielded.
as §10
(§13) Inhibition Rate (Inh %)=100−(RLUDrug−RLUMin)/(RLUMax−RLUMin)*100%. […]

Another assay has as its target Ba/F3-FL-EGFR (WT) (Homo sapiens, UniProt P00533). Description: Cell proliferation inhibition, CellTiter-Glo. In kind it is cell-based. Conditions: 72 hours, read-out: Cell half-maximal inhibition concentration IC50 Ba/F3-FL-EGFR (WT). Here is the method: as §1, §2, §3, §4, §5, §6, §7, §8, §9, §11, §12, §10, §13
Assay [2] has as its target Ba/F3-FL-EGFR (del19-E746-A750/T790M/C797S) (Homo sapiens, UniProt P00533, DEL746-750/T790M/C797S, cells depend on it). Description: Cell proliferation inhibition, CellTiter-Glo. In kind it is cell-based. Conditions: 72 hours, read-out: Cell half-maximal inhibition concentration IC50 Ba/F3-FL-EGFR (del19-E746-A750/T790M/C797S). Here is the method:
as §1, §2, §3, §4, §5, §6, §7, §8, §9, §11, §12, §10, §13

The target in assay [3] is Ba/F3-FL-EGFR (del19-S752-I759) (Homo sapiens, UniProt P00533, DEL752-759, cells depend on it). Description: Cell proliferation inhibition, CellTiter-Glo. The assay is classed as cell-based. Conditions: 72 hours, read-out: Cell half-maximal inhibition concentration IC50 Ba/F3-FL-EGFR (del19-S752-I759). Here is the method: as §1, §2, §3, §4, §5, §6, §7, §8, §9, §11, §12, §10, §13

For assay [4], the system named is PC-9 (EGFR del19/T790M/C797S). Conditions: J. Med. Chem. 2019, 62, 22, 10272-10293; cited from earlier work.

Where a name gives a salt, the structure may show the parent alone. Read-outs that look alike come from different tables or passages of the source.

Ba/F3-FL-EGFR (L858R/T790M/C797S), sequence (P00533 whole entry T790M/C797S/L858R): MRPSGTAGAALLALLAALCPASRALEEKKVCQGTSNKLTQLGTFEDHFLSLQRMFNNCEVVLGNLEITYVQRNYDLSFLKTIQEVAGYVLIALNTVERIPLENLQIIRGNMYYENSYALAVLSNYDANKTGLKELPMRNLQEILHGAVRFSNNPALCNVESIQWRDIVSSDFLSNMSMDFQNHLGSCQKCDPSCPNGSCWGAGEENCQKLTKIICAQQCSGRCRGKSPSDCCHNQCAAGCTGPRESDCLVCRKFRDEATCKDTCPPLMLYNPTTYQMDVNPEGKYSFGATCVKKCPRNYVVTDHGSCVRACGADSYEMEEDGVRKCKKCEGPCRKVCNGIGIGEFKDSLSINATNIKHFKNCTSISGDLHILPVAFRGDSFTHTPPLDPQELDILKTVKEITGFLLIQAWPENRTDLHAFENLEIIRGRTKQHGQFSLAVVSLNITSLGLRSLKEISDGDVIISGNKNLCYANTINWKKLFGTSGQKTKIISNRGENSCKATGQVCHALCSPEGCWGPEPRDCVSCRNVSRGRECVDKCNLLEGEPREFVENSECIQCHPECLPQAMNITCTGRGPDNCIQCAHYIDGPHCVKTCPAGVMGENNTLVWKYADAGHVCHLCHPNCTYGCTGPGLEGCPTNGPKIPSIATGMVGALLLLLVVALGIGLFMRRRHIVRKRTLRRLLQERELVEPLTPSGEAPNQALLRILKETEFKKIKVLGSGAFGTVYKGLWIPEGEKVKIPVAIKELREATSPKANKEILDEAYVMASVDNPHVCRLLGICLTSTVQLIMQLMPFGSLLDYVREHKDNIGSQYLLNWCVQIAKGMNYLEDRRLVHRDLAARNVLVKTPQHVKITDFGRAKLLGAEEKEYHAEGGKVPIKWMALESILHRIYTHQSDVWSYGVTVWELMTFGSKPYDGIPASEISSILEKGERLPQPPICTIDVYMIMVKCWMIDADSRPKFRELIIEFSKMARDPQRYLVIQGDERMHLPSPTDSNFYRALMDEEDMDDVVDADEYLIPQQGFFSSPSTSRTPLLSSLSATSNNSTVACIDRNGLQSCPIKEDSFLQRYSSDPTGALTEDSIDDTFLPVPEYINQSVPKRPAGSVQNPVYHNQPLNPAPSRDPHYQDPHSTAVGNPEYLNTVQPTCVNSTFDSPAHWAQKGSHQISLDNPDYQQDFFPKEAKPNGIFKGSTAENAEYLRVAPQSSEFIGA
T1 sequence (P00533 25-1210 T790M/C797S/L858R): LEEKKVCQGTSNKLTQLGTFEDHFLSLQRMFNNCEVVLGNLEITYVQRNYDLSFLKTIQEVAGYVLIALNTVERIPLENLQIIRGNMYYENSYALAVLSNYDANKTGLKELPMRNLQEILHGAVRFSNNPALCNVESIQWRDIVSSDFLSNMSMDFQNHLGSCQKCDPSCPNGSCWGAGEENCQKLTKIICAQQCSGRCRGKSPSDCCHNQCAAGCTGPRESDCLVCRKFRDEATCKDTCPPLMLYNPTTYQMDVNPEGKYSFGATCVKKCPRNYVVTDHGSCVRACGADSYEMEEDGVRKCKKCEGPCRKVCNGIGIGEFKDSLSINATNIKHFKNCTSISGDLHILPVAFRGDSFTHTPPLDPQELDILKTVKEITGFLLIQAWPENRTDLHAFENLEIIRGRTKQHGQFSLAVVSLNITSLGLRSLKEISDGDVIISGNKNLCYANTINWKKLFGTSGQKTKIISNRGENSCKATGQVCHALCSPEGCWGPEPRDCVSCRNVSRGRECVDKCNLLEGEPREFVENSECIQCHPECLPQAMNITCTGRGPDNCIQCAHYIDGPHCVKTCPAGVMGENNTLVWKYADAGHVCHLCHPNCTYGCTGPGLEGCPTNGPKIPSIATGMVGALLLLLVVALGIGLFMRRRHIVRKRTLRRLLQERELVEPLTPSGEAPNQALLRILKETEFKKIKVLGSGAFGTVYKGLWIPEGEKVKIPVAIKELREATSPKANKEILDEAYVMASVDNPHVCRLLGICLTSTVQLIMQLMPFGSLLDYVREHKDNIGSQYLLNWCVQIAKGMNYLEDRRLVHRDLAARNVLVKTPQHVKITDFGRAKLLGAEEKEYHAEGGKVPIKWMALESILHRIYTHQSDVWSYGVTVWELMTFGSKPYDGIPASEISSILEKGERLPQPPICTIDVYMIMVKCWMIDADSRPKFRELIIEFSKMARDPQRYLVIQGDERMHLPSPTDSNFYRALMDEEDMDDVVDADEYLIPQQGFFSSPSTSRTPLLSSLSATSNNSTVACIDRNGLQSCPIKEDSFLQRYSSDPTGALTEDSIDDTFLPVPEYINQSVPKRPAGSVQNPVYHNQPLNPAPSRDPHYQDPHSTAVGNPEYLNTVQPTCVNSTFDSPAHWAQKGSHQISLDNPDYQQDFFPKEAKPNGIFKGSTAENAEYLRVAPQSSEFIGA
Ba/F3-FL-EGFR (L858R), sequence (P00533 whole entry L858R): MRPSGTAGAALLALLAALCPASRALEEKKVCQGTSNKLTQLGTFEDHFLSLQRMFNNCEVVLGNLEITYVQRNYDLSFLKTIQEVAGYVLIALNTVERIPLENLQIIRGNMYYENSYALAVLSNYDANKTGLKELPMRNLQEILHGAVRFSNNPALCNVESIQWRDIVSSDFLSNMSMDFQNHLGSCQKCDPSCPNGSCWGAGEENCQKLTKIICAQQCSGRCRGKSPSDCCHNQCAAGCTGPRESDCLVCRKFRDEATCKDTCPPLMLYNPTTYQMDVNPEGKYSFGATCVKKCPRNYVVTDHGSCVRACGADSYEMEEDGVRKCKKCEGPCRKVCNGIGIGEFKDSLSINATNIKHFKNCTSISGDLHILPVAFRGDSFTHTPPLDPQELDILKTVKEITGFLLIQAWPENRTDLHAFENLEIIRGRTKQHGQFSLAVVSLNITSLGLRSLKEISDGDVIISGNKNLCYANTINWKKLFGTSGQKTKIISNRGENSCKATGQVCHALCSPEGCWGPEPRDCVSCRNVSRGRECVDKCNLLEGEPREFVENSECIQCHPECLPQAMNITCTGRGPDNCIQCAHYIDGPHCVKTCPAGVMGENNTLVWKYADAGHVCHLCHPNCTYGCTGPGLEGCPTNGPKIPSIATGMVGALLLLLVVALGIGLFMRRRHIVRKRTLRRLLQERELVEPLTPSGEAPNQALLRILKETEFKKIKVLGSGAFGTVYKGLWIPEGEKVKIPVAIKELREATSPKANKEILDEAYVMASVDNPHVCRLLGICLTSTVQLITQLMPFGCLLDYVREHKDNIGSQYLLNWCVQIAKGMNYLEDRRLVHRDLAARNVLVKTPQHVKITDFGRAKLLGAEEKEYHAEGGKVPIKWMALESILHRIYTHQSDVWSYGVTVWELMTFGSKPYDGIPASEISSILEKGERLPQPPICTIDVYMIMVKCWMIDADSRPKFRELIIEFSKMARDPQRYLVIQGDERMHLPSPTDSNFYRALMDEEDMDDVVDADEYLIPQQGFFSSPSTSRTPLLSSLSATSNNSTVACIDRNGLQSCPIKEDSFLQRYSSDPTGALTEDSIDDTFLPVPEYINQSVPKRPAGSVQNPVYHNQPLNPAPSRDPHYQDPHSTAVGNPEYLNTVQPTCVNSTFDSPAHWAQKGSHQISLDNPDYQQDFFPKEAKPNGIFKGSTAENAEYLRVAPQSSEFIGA
Ba/F3-FL-EGFR (del19-E746-A750/T790M/C797S), sequence (P00533 with tags, fused parts or gaps DEL746-750/T790M/C797S): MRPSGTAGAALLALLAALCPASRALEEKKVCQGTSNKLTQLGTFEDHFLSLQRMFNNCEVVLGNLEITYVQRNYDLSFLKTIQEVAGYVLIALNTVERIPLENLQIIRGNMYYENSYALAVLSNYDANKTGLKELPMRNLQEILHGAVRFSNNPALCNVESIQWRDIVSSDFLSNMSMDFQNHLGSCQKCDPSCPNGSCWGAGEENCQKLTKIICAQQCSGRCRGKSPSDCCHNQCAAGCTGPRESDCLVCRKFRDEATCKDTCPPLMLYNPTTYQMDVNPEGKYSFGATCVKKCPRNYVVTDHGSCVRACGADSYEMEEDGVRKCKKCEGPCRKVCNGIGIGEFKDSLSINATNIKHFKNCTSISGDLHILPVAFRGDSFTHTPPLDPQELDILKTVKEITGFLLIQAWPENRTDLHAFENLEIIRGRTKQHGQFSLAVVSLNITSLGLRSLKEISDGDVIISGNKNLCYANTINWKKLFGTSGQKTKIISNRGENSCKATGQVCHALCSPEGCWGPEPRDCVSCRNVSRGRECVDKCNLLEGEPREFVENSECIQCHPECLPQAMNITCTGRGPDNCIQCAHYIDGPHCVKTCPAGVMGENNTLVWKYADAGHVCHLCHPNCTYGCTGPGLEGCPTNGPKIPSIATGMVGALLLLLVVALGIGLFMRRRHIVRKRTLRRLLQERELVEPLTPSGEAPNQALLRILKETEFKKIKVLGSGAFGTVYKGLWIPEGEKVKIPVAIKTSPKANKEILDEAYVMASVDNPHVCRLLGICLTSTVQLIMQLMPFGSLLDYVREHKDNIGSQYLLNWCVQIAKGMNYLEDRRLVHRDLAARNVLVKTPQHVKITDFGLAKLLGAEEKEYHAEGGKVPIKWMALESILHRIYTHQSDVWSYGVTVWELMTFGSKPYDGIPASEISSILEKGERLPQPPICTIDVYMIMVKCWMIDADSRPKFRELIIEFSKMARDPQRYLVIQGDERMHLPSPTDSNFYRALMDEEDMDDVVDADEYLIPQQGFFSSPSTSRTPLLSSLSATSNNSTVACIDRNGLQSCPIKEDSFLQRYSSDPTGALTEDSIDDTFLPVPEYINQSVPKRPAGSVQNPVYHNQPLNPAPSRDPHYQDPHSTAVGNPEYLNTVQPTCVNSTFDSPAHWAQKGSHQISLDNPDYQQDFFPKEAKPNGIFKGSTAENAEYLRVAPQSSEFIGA

With `Cc1cc2cc(n1)-c1cnn(C)c1OCCC[C@@H](C)CN1/C(=N/C2=O)Nc2ccc(N=S3(=O)CCC4(CCN(C)CC4)CC3)cc21` [WX-023], the GI50 in assay [1] was 2.7 nM.

For the compound `Cc1cc2cc(n1)-c1cnn(C)c1OCCC[C@@H](C)CN1/C(=N/C2=O)Nc2ccc(N=S3(=O)CCC4(CC3)COC4)cc21` [WX-029], in assay [1], the GI50 is 5.5 nM.

Consider `Cc1cc2cc(n1)-c1cnn(C)c1OCCC[C@@H](C)CN1/C(=N/C2=O)Nc2ccc(P(C)(C)=O)cc21` [WX-001 (trifluoroacetate)], for which the IC50 on EGFR (L858R/T790M/C797S) (ATP 10 μM) was 0.159 nM; on EGFR (L858R/T790M/C797S) (ATP 100 μM), 1.17 nM.

Consider `Cc1cc2cc(n1)-c1cnn(C)c1OCCC[C@@H](C)CN1/C(=N/C2=O)Nc2ccc(N=S3(=O)CCNCC3)cc21` [WX-014], for which the GI50 in assay [1] worked out at 14.3 nM; on Ba/F3-FL-EGFR (L858R) it was 53.9 nM; at Ba/F3-FL-EGFR (WT), 421 nM; in assay [2] it was 2.9 nM; in assay [3] it was 38.1 nM.

As for `Cc1cc2cc(n1)-c1cnn(C)c1OCCC[C@@H](C)Cn1c(nc3ccc(CN4CCN(C)CC4)cc31)NC2=O` [BI-4020], in assay [4], the Anti-tumor efficacy entry is “good anti-tumor efficacy”.

For `Cc1cc2cc(n1)-c1cnn(C)c1OCCC[C@@H](C)CN1/C(=N/C2=O)Nc2ccc(N=S3(=O)CCN(C)CC3)cc21` [WX-015], in assay [1], the GI50 was found to be 10.6 nM.

In the case of `Cc1cc2cc(n1)-c1cnn(C)c1OCCC[C@@H](C)CN1/C(=N/C2=O)Nc2ccc(N=S3(=O)CCC(N4CCN(C)CC4)CC3)cc21` (some centres unmarked) [WX-026], in assay [1], the GI50 was 11.6 nM.

Turning to `CCS(=O)(=O)c1ccc2c(c1)N1C[C@H](C)CCCOc3c(cnn3C)-c3cc(cc(C)n3)C(=O)/N=C/1N2` [WX-002 (formate)], at EGFR (L858R/T790M/C797S) (ATP 10 μM), the IC50 was 0.468 nM.

Take `Cc1cc2cc(n1)-c1cnn(C)c1OCCC[C@@H](C)CN1/C(=N/C2=O)Nc2ccc(N=S(C)(C)=O)cc21` [WX-006 (trifluoroacetate)]: the IC50 at EGFR (L858R/T790M/C797S) (ATP 100 μM) stood at 0.831 nM. Further, the GI50 in assay [1] is 2.3 nM.

As to `Cc1cc2cc(n1)-c1cnn(C)c1OCCC[C@@H](C)CN1/C(=N/C2=O)Nc2ccc(P(=O)(C(C)C)C(C)C)cc21` [WX-005 (trifluoroacetate)], on EGFR (L858R/T790M/C797S) (ATP 100 μM), the IC50 turned out to be 1.63 nM. For the same compound, the GI50 in assay [1] worked out at 7.2 nM.

For `Cc1cc2cc(n1)-c1cnn(C)c1OCCC[C@@H](C)CN1/C(=N/C2=O)Nc2ccc(N=S3(=O)CC4CN(C)CC4C3)cc21` (some centres unmarked) [WX-024], the GI50 in assay [1] was found to be 1.4 nM.

In the case of `Cc1cc2cc(n1)-c1cnn(C)c1OCCC[C@@H](C)CN1/C(=N/C2=O)Nc2ccc(N=S3(=O)CCC4(CCOCC4)CC3)cc21` [WX-028], in assay [1], the GI50 worked out at 3.3 nM.

As to `Cc1cc2cc(n1)-c1cnn(C)c1OCCC[C@@H](C)CN1/C(=N/C2=O)Nc2ccc(N=S3(=O)CCN(C4COC4)CC3)cc21` [WX-030], the GI50 in assay [1] is 13 nM.

As for `Cc1cc2cc(n1)-c1cnn(C)c1OCCC[C@@H](C)CN1/C(=N/C2=O)Nc2ccc(N=S3(=O)CCCCC3)cc21` [WX-011], the GI50 in assay [1] is 4.4 nM.

With `Cc1cc2cc(n1)-c1cnn(C)c1OCCC[C@@H](C)CN1/C(=N/C2=O)Nc2ccc(N=S3(=O)CC4(COC4)C3)cc21` [WX-025], the GI50 in assay [1] came to 5.7 nM.

Take `Cc1cc2cc(n1)-c1cnn(C)c1OCCC[C@@H](C)CN1/C(=N/C2=O)Nc2ccc(N=S3(=O)CCC4(CC3)CN(C)C4)cc21` [WX-031]: the GI50 in assay [1] came to 2.1 nM.

As to `Cc1cc2cc(n1)-c1cnn(C)c1OCCC[C@@H](C)CN1/C(=N/C2=O)Nc2ccc(N=S3(=O)CCN(C4CCN(C)CC4)CC3)cc21` [WX-022], the GI50 in assay [1] worked out at 12.7 nM.

`CCS(=O)(CC)=Nc1ccc2c(c1)N1C[C@H](C)CCCOc3c(cnn3C)-c3cc(cc(C)n3)C(=O)/N=C/1N2` [WX-012 (hydrochloride)]: in assay [1], the GI50 is 7.3 nM.

Regarding `CCP(=O)(CC)c1ccc2c(c1)N1C[C@H](C)CCCOc3c(cnn3C)-c3cc(cc(C)n3)C(=O)/N=C/1N2` [WX-004 (trifluoroacetate)], on EGFR (L858R/T790M/C797S) (ATP 100 μM), the IC50 is 1.75 nM.

(Values after patent US20250084097A1, “MACROCYCLIC AMIDE COMPOUNDS AND APPLICATION THEREOF” (Medshine Discovery Inc., priority 2021, published 2025).)
